Experiments:
IL-1β mRNA in the kidney = assay: IL-1β mRNA expression in the kidney of SLE model mice (Real-Time RT-PCR); format: in vivo, NZB/WF1 mice; conditions: Drug A 30 mg/kg twice a day, Drug B 3 mg/kg once a day, oral, 10 weeks; for IL-1β Relative index: kidney mRNA relative to control group = 1.000; for IL-1β mRNA expression level (%): kidney, female NZB/WF1 mice, control = 100%, mean ± standard error of 10 to 11 mice
Protocol: (§1) Actions of suppressing the expression of disease-associated genes in the kidney by the administration of 2-benzyl-5-(4-chlorophenyl)-6-[4-(methylthio)phenyl]-2H-pyridazine-3-one (hereinafter referred to as Drug A) and prednisolone (hereinafter referred to as Drug B) in combination and the administration of each drug alone were evaluated by using NZB×NZW (NZB/W)F1 mice widely known as spontaneous SLE models.
(§2) Female NZB/WF1 mice (Japan SLC, Inc.) were used as test animals.
(§3) The bodyweight of 20-week-old NZB/WF1 mice was measured. By using the body weight as an index, the mice were divided into groups through one-parameter-based block randomization so that each group becomes uniform.
(§4) Drug administration was conducted from the day after the grouping to 10 weeks thereafter. To a group for sole administration of Drug A, a dose of 30 mg/kg was orally administered, twice a day, in the morning (9:00 to 11:00) and in the evening (15:30 to 17:30). Further, to a group for sole administration of Drug B, a dose of 3 mg/kg was orally administered, once a day, in the daytime (11:30 to 13:30). On the other hand, to a group for combined administration of Drug A and Drug B, 30 mg/kg of Drug A was orally administered in the morning (9:00 to 11:00) and in the evening (15:30 to 17:30), and 3 mg/kg of Drug B was orally administered in the daytime (11:30 to 13:30).
(§5) 10 weeks after the grouping (at the time of 30 weeks old), the kidney was excised from each individual and horizontally divided into two portions. After that, the kidney was subjected to RNase inactivation treatment that involves immersing the kidney in RNAlater (manufactured by QIAGEN GmbH) at 4° C. for 24 hours. […] The mRNA expression levels of SLE-associated genes (IFN-y (probe No.: Mm00801778_m1), TNF-α (probe No.: Mm00443258_m1), IL-1β (probe No.: Mm00434228_m1), BAFF (probe No.: Mm00446347_m1), IFIT1 (probe No.: Mm00515153_m1), and IP-10 (probe No.: Mm00445235_m1)) were determined by using ABI PRISM (registered trademark) 7900 Sequence Detection System (manufactured by Applied Biosystems, Inc.) and TaqMan (registered trademark) Gene Expression Assays (manufactured by Applied Biosystems, Inc.) by Real-Time RT-PCR method. […]
(§6) Tables 1 to 6 and FIGS. 1 to 6 each show the mRNA expression levels of IFN-γ (Table 1, FIG. 1), TNF-α (Table 2, FIG. 2), IL-1β (Table 3, FIG. 3), BAFF (Table 4, FIG. 4), IFIT1 (Table 5, FIG. 5), and IP-10 (Table 6, FIG. 6) in the kidney in a control group, a group for sole administration of 30 mg/kg of Drug A, a group for sole administration of 3 mg/kg of Drug B, and a group for combined administration of both Drugs. […] The mRNA expression level is expressed as mean±standard error of 10 to 11 mice in each group. […]

[1] = test system: SLE-associated genes in the kidney; assay: Expression of SLE-associated genes in the kidney of SLE model mice, overall statement; format: in vivo; conditions: NZB/WF1 mice, oral, 10 weeks, Drug A 30 mg/kg twice a day, Drug B 3 mg/kg once a day, Dunnett's test vs control
Protocol: as §1, §2, §3, §4
as §5, with “portions.” for “portions. After that, the kidney was subjected to RNase inactivation treatment that involves immersing the kidney in RNAlater (manufactured by QIAGEN GmbH) at 4° C. for 24 hours.”

IFN-γ mRNA in the kidney = assay: IFN-γ mRNA expression in the kidney of SLE model mice (Real-Time RT-PCR); format: in vivo, NZB/WF1 mice; conditions: Drug A 30 mg/kg twice a day, Drug B 3 mg/kg once a day, oral, 10 weeks; for IFN-γ Relative index: kidney mRNA relative to control group = 1.000; for IFN-γ mRNA expression level (%): kidney, female NZB/WF1 mice, control = 100%, mean ± standard error of 10 to 11 mice
Protocol: as §1, §2, §3, §4, §5, §6

TNF-α mRNA in the kidney = assay: TNF-α mRNA expression in the kidney of SLE model mice (Real-Time RT-PCR); format: in vivo, NZB/WF1 mice; conditions: Drug A 30 mg/kg twice a day, Drug B 3 mg/kg once a day, oral, 10 weeks; for TNF-α Relative index: kidney mRNA relative to control group = 1.000; for TNF-α mRNA expression level (%): kidney, female NZB/WF1 mice, control = 100%, mean ± standard error of 10 to 11 mice
Protocol: as §1, §2, §3, §4, §5, §6

BAFF mRNA in the kidney = assay: BAFF mRNA expression in the kidney of SLE model mice (Real-Time RT-PCR); format: in vivo, NZB/WF1 mice; conditions: Drug A 30 mg/kg twice a day, Drug B 3 mg/kg once a day, oral, 10 weeks; for BAFF Relative index: kidney mRNA relative to control group = 1.000; for BAFF mRNA expression level (%): kidney, female NZB/WF1 mice, control = 100%, mean ± standard error of 10 to 11 mice
Protocol: as §1, §2, §3, §4, §5, §6

IFIT1 mRNA in the kidney = assay: IFIT1 mRNA expression in the kidney of SLE model mice (Real-Time RT-PCR); format: in vivo, NZB/WF1 mice; conditions: Drug A 30 mg/kg twice a day, Drug B 3 mg/kg once a day, oral, 10 weeks; for IFIT1 Relative index: kidney mRNA relative to control group = 1.000; for IFIT1 mRNA expression level (%): kidney, female NZB/WF1 mice, control = 100%, mean ± standard error of 10 to 11 mice
Protocol: as §1, §2, §3, §4, §5, §6

IP-10 mRNA in the kidney = assay: IP-10 mRNA expression in the kidney of SLE model mice (Real-Time RT-PCR); format: in vivo, NZB/WF1 mice; conditions: Drug A 30 mg/kg twice a day, Drug B 3 mg/kg once a day, oral, 10 weeks; for IP-10 Relative index: kidney mRNA relative to control group = 1.000; for IP-10 mRNA expression level (%): kidney, female NZB/WF1 mice, control = 100%, mean ± standard error of 10 to 11 mice
Protocol: as §1, §2, §3, §4, §5, §6

SMILES | IL-1β Relative index (IL-1β mRNA in the kidney) | IL-1β mRNA expression level (%) (IL-1β mRNA in the kidney) | action on the expression of SLE-associated genes in the kidney (in words) [1] | IFN-γ Relative index (IFN-γ mRNA in the kidney) | IFN-γ mRNA expression level (%) (IFN-γ mRNA in the kidney) | TNF-α Relative index (TNF-α mRNA in the kidney) | TNF-α mRNA expression level (%) (TNF-α mRNA in the kidney) | BAFF Relative index (BAFF mRNA in the kidney) | BAFF mRNA expression level (%) (BAFF mRNA in the kidney) | IFIT1 Relative index (IFIT1 mRNA in the kidney) | IFIT1 mRNA expression level (%) (IFIT1 mRNA in the kidney) | IP-10 Relative index (IP-10 mRNA in the kidney) | IP-10 mRNA expression level (%) (IP-10 mRNA in the kidney) | action on the expression of SLE-associated genes in the kidney (in words) ([1]; listed as 2-benzyl-5-(4-chlorophenyl)-6-[4-(methylthio)phenyl]-2H-pyridazine-3-one)
C[C@]12C=CC(=O)C=C1CC[C@@H]1[C@@H]2[C@@H](O)C[C@@]2(C)[C@H]1CC[C@]2(O)C(=O)CO [Drug B, prednisolone, reference compound] | 0.661 | 66.1 ± 21.9% | exhibited a tendency to suppress the expression of any gene | 0.360 | 36.0 ± 13.1% | 0.522 | 52.2 ± 13.2% | 0.722 | 72.2 ± 13.1% | 0.786 | 78.6 ± 15.0% | 0.635 | 63.5 ± 9.9% | 
CSc1ccc(-c2nn(Cc3ccccc3)c(=O)cc2-c2ccc(Cl)cc2)cc1 [Drug A, 2-benzyl-5-(4-chlorophenyl)-6-[4-(methylthio)phenyl]-2H-pyridazine-3-one] | 1.266 | 126.6 ± 50.3% | exhibited no action on the expression of SLE-associated genes in the kidney of this model or exhibited only a tendency to slightly suppress the expression | 0.857 | 85.7 ± 27.1% | 0.634 | 63.4 ± 13.5% | 1.135 | 113.5 ± 13.7% | 0.721 | 72.1 ± 15.6% | 0.883 | 88.3 ± 18.1% | there was not confirmed a significant action of suppressing the expression of SLE-associated genes in the kidney
